{"source": "patent US20170333388A1", "about": "“Therapeutic compound and its application in repairing diabetes-related cardiac injuries” (Numen Biotech Co., Ltd, priority 2016, published 2017)", "assay_type_in_all_cases": "cell-based, rat", "key": {"[1]": {"tested_on": "adipose-derived stem cells (ADSC)", "assay": "Western blot of protein expression in ADSC preconditioned with EGCG", "method": "After the drug treatment, the culture medium was removed from the cells and rinsed with PBS buffer for three times; then 1 mL PBS was used to scrape the cells from the dish and the cells containing solution was placed in a centrifuge tube, and the solution was centrifuged by 12,000 rpm for 10 minutes, then the supernatant was removed, and the lysis buffer (50 mM Tris pH 7.5,0.5 M NaCl, 1.0 mM EDTA pH 7.5,1 mM BME, 1% NP40,10% glycerol, protease inhibitor cocktail table) was added and mixed. The mixture was placed on ice and shock once every 5 minutes for 30 minutes, and then the mixture was centrifuged at 12,000 g in 4° C. for 10 minutes, the upper layer was placed in a new tube to measure the protein concentration.\nAfter the drug treatment, the culture medium was removed from the cells and rinsed with PBS buffer for three times; then 1 mL PBS was used to scrape the cells from the dish and the cells containing solution was placed in a centrifuge tube, and the solution was centrifuged by 12,000 rpm for 10 minutes then the supernatant was removed and extraction buffer (50 mM Tris pH 7.5-0.5 M NaCl-1.0 mM EDTA pH 7.5-10% glycerol-protease inhibitor cocktail table) was added into the mill tube, then grinded on ice. And the homogenate was then placed in a new centrifuge tube to centrifuge at 4° C. by 12,000 rpm for 10 minutes, the upper layer was placed in a new centrifuge tube for measuring the protein concentration.\n[…] protein samples were added into a PBS solution, and 5× loading dye was added then mixed evenly and boiled for 10 minutes, then analyze by SDS-polyacrylamide slab gel electrophoresis. The upper layer of the SDS-polyacrylamide gel electrophoresis was 3.75% Stacking gel, and the lower layer was 5% and 12% Separating gel. The plastic plates was fixed to the electrophoresis apparatus and the electrophoresis buffer was filled into the electrophoresis tank, and then the treated protein sample was added into the U-shaped groove formed on a plastic plate, and undergo electrophoresis with 75 volts. […]"}, "[2]": {"tested_on": "adipose-derived stem cells (ADSC)", "assay": "stem cell proliferation (colony) experiment in high glucose medium", "details": "high glucose destroyed stem cells (33 mM glucose)", "method": "The adipose-derived stem cells were taken out from the abdominal adipose tissue of 8-month-old Wistar male rats via surgery. After cutting the adipose tissues into suitable sizes, the adipose tissues were washed by antibiotic containing saline. The washed adipose tissues were placed into a Type II collagenase (0.01%) containing saline, and were stirred and heated under 37° C. water bath for 1 hour. Then the adipose tissues were centrifuged by 3000 rpm under room temperature for 10 minute, the precipitants were extracted for cell culture in the culture dish.\nIn the aspect of stem cell proliferation experiment, the more the number of stem cell colonies in different experimental conditions represents for the better growth experiment condition for stem cells. The stem cells were divided into 5 different groups, which were: Group 1: stem cell group, Group 2: high glucose destroyed stem cell group, Group 3: EGCG (2.5 μM in concentration) precondition high glucose destroyed stem cell group, Group 4: EGCG (5 μM in concentration) precondition high glucose destroyed stem cell group, Group 5: EGCG (10 μM in concentration) precondition high glucose destroyed stem cell group. […] In comparison with the normal stem cell group (Group 1), the distribution of the stem cells colonies cultured in high glucose medium was inhibited (Group 1>Group 2, p<0.001). In contrast, in comparison to the high glucose destroyed stem cells, the stem cell colonies were recovered under different EGCG concentration precondition (Group 2<Group 3, p<0.05; Group 2<Group 4, p<0.05; Group 2<Group 5, p<0.01). Then the migration ability of stem cells under different experiment conditions was tested. The more numbers of stem cells represent the stem cells have stronger migration ability under this experiment condition."}, "[3]": {"tested_on": "adipose-derived stem cells (ADSC)", "assay": "transwell migration assay of ADSC in high glucose medium", "method": "The stem cells were divided into five different groups, which were: Group 1: stem cell group, Group 2: high glucose destroyed stem cell group, Group 3: EGCG (2.5 μM in concentration) precondition high glucose destroyed stem cell group, Group 4: EGCG (5 μM in concentration) precondition high glucose destroyed stem cell group, Group 5: EGCG (10 μM in concentration) precondition high glucose destroyed stem cell group. […] The migration ability of the five groups was: 63±10, 36±7, 55±5, 84±6 and 144±4, respectively. In comparison with the normal stem cell group (Group 1), the migration ability of the stem cells cultured in high glucose medium was decreased (Group 1>Group 2, p<0.05). In contrast, in comparison to the high glucose destroyed stem cells, the migration ability of stem cells was recovered under different EGCG concentration precondition (Group 2<Group 3, p<0.05; Group 2<Group 4, p<0.001; Group 2<Group 5, p<0.001). Then the migration ability of stem cells under different experiment conditions was tested. The more numbers of stem cells represents the stem cells have stronger migration ability under this experiment condition.\nDuring the analysis of protein expression level, the EGCG induced expression level of CXCR4 and p-Akt increase would be eliminated by siRNA CXCR4. […] The stem cells were divided into six groups in this test, which were: Group 1: stem cell group, Group 2: high glucose destroyed stem cell group, Group 3: EGCG (10 μM in concentration) precondition high glucose destroyed stem cell group, Group 4: siRNA CXCR4 (3 nM) was added in Group 3, Group 5: CXCR4 siRNA (10 nM) was added into Group 4. The numbers of migrated stem cells were 288±25, 36±7, 159±17, 84±6, 41±8 and 40±2 respectively."}, "[4]": {"details": "EGCG precondition at different concentrations vs high glucose destroyed stem cells"}}, "data": [{"compound": "O=C(O[C@@H]1Cc2c(O)cc(O)cc2O[C@@H]1c1cc(O)c(O)c(O)c1)c1cc(O)c(O)c(O)c1", "note": "[EGCG, epigallocatechin gallate]", "values": [{"measurement": "apoptosis protein cytochrome-C expression level", "setting": "[1]; [4]", "result": "decreased"}, {"measurement": "migration protein (CXCR4) expression level", "setting": "[1]; [4]", "result": "recovered"}, {"measurement": "EGCG induced increase of CXCR4 and p-Akt expression level", "setting": "[1]; FIG. 6, in the presence of siRNA CXCR4", "result": "eliminated"}, {"measurement": "stem cell colonies", "setting": "[2]; EGCG 2.5 μM precondition", "result": "152±17"}, {"measurement": "stem cell colonies", "setting": "[2]; EGCG 5 μM precondition", "result": "178±22"}, {"measurement": "stem cell colonies", "setting": "[2]; EGCG 10 μM precondition", "result": "226±31"}, {"measurement": "migration ability (numbers of migrated stem cells)", "setting": "[3]; FIG. 4, EGCG 2.5 μM precondition", "result": "55±5"}, {"measurement": "migration ability (numbers of migrated stem cells)", "setting": "[3]; FIG. 4, EGCG 5 μM precondition", "result": "84±6"}, {"measurement": "migration ability (numbers of migrated stem cells)", "setting": "[3]; FIG. 4, EGCG 10 μM precondition", "result": "144±4"}, {"measurement": "numbers of migrated stem cells", "setting": "[3]; FIG. 7, Group 3: EGCG 10 μM precondition", "result": "159±17"}, {"measurement": "numbers of migrated stem cells", "setting": "[3]; FIG. 7, Group 4: EGCG 10 μM precondition, siRNA CXCR4 3 nM added", "result": "84±6"}, {"measurement": "numbers of migrated stem cells", "setting": "[3]; FIG. 7, Group 5: EGCG 10 μM precondition, CXCR4 siRNA 10 nM added", "result": "41±8"}]}]}
